Data from patent US6600076B1, “Cleavable, water-soluble surfactants” (The Regents of the University of California, priority 1999, dated 2003).
Read-outs that look alike come from different tables or passages of the source.

How the values were obtained:
[1] = Surface tension of aqueous solutions, maximum bubble pressure tensiometer, incl. reduction with DTT; format: physicochemical; conditions: for effect on surface tension of water: 10 mM DTT and 1 mM oxidized DTT added to water
Source text: (Menger, F. M. et al., J. Am. Chem. Soc. 115:10083-10090 (1993)). […] The surface tensions of the reacting system reported herein correspond, therefore, to a local steady state at the surface of the solution. In the absence of reaction, these surface tensions are equilibrium tensions.

[2] = Surface tension after oxidation with NaOCl or bleach (pendant drop); format: physicochemical; conditions: for surface tension: 4 mM
Experimental: To test the idea that oxidation of 1 by NaOCl would transform 1 into less surface-active products, changes in surface tensions that accompanied additions of aliquots of NaOCl to solutions of 1 were measured. The amount of OCl^− consumed by reaction with 1 was also determined by iodometry. The initial surface tension of the 2 mM solution (using the pendant drop technique) was measured to be 48 mN/m. […] The addition of subsequent aliquots of NaOCl, however, caused the surface tension to increase to ˜71 mN/m. […] In this case, only ˜8% of the OCl^− added remained unreacted.
The oxidation of 1 using NaOCl (6:1 ratio of NaOCl to 1) was performed in 50 mM phosphate buffers at three different pHs (pH 3, 6.9, and 11). Following the addition of NaOCl to aqueous solutions of 1 at pH 3 and pH 6.9, the surface tensions of the solutions were measured to increase from ˜48 mN/m to ˜71 mN/m within ˜5 min (FIG. 17). The surface tension was also determined to increase from ˜48 mN/m to ˜71 mN/m upon addition of NaOCl to an aqueous solution of 1 at pH 11. In this case, however, it took ˜15 min for the surface tension to increase to 71 mN/m. […] Therefore disulfide-based surfactants can form the basis of chemodegradable surfactant system that can be used over a wide pH range.
Household bleach was added (6:1 ratio of NaOCl to 1) to a 2 mM solution of 1 in pH 6.9 buffer. Upon addition of bleach to 1, the surface tension of the solution increased from 48 mN/m to ˜71 mN/m in ˜3 min (FIG. 18A), a result similar to our earlier observations based on the addition of NaOCl to 1. […] A control experiment was performed in which the household bleach was added to the phosphate buffer and found not to change the surface tension.

[3] = Surface tension, pendant drop; conditions: 50 mM phosphate buffer pH 6.9, concentrations around or above 10 mM
[4] = Interfacial tension between dodecane and aqueous solution on oxidation by NaOCl; format: physicochemical
[5] = cited from earlier work
[6] = DTT (10 equivalents) added
Experimental: This mixture was sonicated on a setting of 50 for a period of 10 s and then vortexed for 1 min to ensure that the emulsion was thoroughly mixed.

[7] = 10 mM of 1, 5 wt. % dodecane, NaOCl 6:1
Experimental: The mixture was sonicated on a setting of 2 for a period of 20 s and then vortexed for 1 min to ensure that the emulsion was thoroughly mixed.
The disruption of the emulsion was determined by the observation of phase separation in the reaction vial.
A single emulsion was first divided into two vials. […] The second vial was used as a control.

[8] = Equilibrium surface tension, Wilhelmy plate, borate buffer; format: physicochemical; conditions: 100 mM borate buffer, pH 9.2
Experimental: Disulfide-containing surfactants with anionic head groups were synthesized. […] Equilibrium surface tensions were measured using a Kruss K10T tensiometer with a platinum Wilhelmy plate. Surfactant solutions were prepared in a 100 mM borate buffer, pH 9.2.

[9] = Stability of solid and of aqueous solutions (surface tension over time); format: physicochemical; conditions: 1 mM solution in 50 mM phosphate buffer (pH 6.9)
[10] = Cyclic voltammetry; format: physicochemical; conditions: 5 mM of 1 or 10 mM of 2, 50 mM phosphate buffer pH 6.9, SCE reference
Experimental: Solutions were prepared in 50 mM phosphate buffer, pH 6.9. Application of potential was controlled using a potentiostat (Pine Instruments, Grove City, Pa.), and the experimental set-up involved using a carbon felt working electrode with cobalt phthalocyanine (catalyst) evaporated onto the surface of the electrode. A platinum counter electrode and SCE reference electrode were also used.

OC1CSSCC1O (centres unmarked) [oxidized DTT, reference compound]
effect on surface tension of water [1]: did not result in a change in surface tension

O[C@H](CS)[C@H](O)CS (racemic) [DTT, dithiothreitol, reference compound]
effect on surface tension of water [1]: did not result in a change in surface tension

O=C(O)CCCCCCCS [compound 4, 8-mercaptooctanoic acid]
surface activity of the oxidation product ([2]; up to a concentration of 10 mM, 6:1 NaOCl to 1): surface-inactive
limiting surface tension [3]: ~47 mN/m
surface pressure π at the interface of dodecane and water ([4]; 10 mM of 1 oxidized): 22.5 mN/m
surface pressure π at the surface of water ([4]; concentration of 10 mN (printed)): 2 mN/m

CCCCCCCCCCCC[N+](C)(C)C.[Br-] [DTAB, dodecyltrimethylammonium bromide, reference compound]
surface tension of the initial solution ([2]; 4 mM solution, before NaOCl): ~52 mN/m
surface tension ([2]; first equivalent of NaOCl): ~43 mN/m
surface tension ([2]; second equivalent of NaOCl): ~50 mN/m
surface tension ([2]; up to six equivalents of NaOCl): 45 mN/m

C[N+](C)(C)CCCCCCCCCCCC[N+](C)(C)C.[Br-].[Br-] [dodecane-1,12-bis(trimethylammoniumdibromide)]
limiting surface tension ([5]; dissolved into water): 38 mN/m

bis(8-trimethylammonium bromide)dioctyl disulfide [compound 1]
completion of phase separation of the emulsion [6]: ~120 min
completion of phase separation of the emulsion [7]: 45 min
evidence of phase separation of the emulsion [7]: ≤ 10 min
duration of the rapid oxidation [2]: 2 to 3 min
time for the surface tension to increase ([2]; NaOCl 6:1, pH 3 and pH 6.9): ≤ 5 min
time for the surface tension to increase ([2]; NaOCl 6:1, pH 11): ~15 min
time for the surface tension to increase ([2]; household bleach, 6:1, pH 6.9): ~3 min
time for the interfacial tension to increase ([4]; 10 mM, 6 equivalents of NaOCl): ≤ 3 min

1,16-dicarboxylic dioctyl disulfide [compound 3]
differences in equilibrium surface tensions between 3 and 4 at a specified concentration [8]: up to 16 mN/m

CCCCCCCCCCCCOS(=O)(=O)[O-].[Na+] [SDS, sodium dodecyl sulfate]
surface pressure at an air-aqueous interface ([5]; 1 mM solution): 7.5 mN/m
surface pressure at the heptadecane-aqueous interface ([5]; 1 mM solution): 15.2 mN/m

CCCCCCCCCCCCCCCC[N+](C)(C)C.[Br-] [CTAB, cetyltrimethylammonium bromide]
limiting surface tension (γlim) ([5]; in 0.1 M lithium sulfate): 39 mN/m
increase in surface tension over 24 h [9]: ~0.5 mN/m
increase in surface tension over 5 days [9]: 1 mN/m
surface tension [9]: ~41 mN/m

C[N+](C)(C)CCCCCCCCS.[Br-] [compound 2, (8-mercaptooctyl)trimethylammonium bromide]
oxidation peak [10]: 0.55 V
average area occupied at the surface ([1]; 2 mM solution of 2, Gibbs adsorption equation): > 500 A^2/molecule
threshold concentration of surfactant causing a measurable reduction in surface tension ([1]; 50 mM phosphate buffer, pH 6.9, 25° C.): ~1 mM
